Measured values from ChEMBL document CHEMBL6182931, “Chemical Evolution of Aplithianine Class of Serine/Threonine Kinase Inhibitors” (J Med Chem, 2025).

Assay: Inhibition of DNAJB1-PKAcalpha (unknown origin) using biotinylated-peptide substrate CREB incubated for 45 mins in presence of ATP and cAMP by ELISA
Design: species or system Homo sapiens

| Structure (SMILES) | IC50 [µM] |
| --- | --- |
| Cc1noc(C)c1C1=CN(c2ncnc3[nH]cc(C)c23)CCS1 | > 10 |
| C1=C(c2cnco2)SCCN1c1ncnc2[nH]ccc12 | 2.9 |
| N[C@H]1CCCN(C(=O)C2=CN(c3ccnc4[nH]ccc34)CCS2)C1 | 0.068 |
| NCC1(NC(=O)C2=CN(c3ncnc4[nH]ccc34)CCS2)CCC1 | 0.17 |
| O=C(NC[C@@H]1CCCCN1)C1=CN(c2ncnc3[nH]ccc23)CCS1 | 0.66 |
| CN[C@H]1CCCN(C(=O)C2=CN(c3ncnc4[nH]cnc34)CCS2)C1 | 0.77 |
| Cc1cc(N2C=C(c3ccnc4[nH]ccc34)SCC2)nc(C(C)(C)C)n1 | > 10 |
| CN(C[C@H]1CCCCN1)C(=O)C1=CN(c2ncnc3[nH]ccc23)CCS1 | 0.42 |
| O=C(N[C@@H]1CCCNC1)C1=CN(c2ncnc3[nH]ccc23)CCS1 | 0.69 |
| O=C(N[C@H]1CCNC1)C1=CN(c2ncnc3[nH]ccc23)CCS1 | 0.068 |
| CN[C@H]1CCCN(C(=O)C2=CN(c3ncnc4[nH]cc(C)c34)CCS2)C1 | 0.4 |
| C[C@H](N)CNC(=O)C1=CN(c2ncnc3[nH]ccc23)CCS1 | 0.18 |
| NCCCCNC(=O)C1=CN(c2ncnc3[nH]ccc23)CCS1 | 0.21 |
| N[C@@H]1CCCN(C(=O)C2=CN(c3ccnc4[nH]ccc34)CCS2)C1 | 0.019 |
| N[C@@H]1CCCC[C@@H]1NC(=O)C1=CN(c2ncnc3[nH]ccc23)CCS1 | 0.13 |
| O=C(C1=CN(c2ncnc3[nH]ccc23)CCS1)N1CCc2nc[nH]c2C1 | 0.58 |
| Cc1ncoc1C1=CN(c2ncnc3[nH]ccc23)CCS1 | 4.5 |
| CN[C@@H]1CCCN(C(=O)C2=CN(c3ncnc4[nH]cc(C)c34)CCS2)C1 | 0.05 |
| CN[C@H]1CCCN(C(=O)C2=CN(c3ccnc4[nH]ccc34)CCS2)C1 | 0.27 |
| C1=C(c2ccncn2)SCCN1c1ccnc2[nH]ccc12 | > 10 |
| Cc1c[nH]c2ncnc(N3C=C(c4cnn(C)c4)SCC3)c12 | 5.5 |
| CN[C@H]1CCCN(C(=O)C2=CN(c3ncnc4[nH]ccc34)CCS2)C1 | 0.31 |

| Structure (SMILES) | IC50 [µM] |
| --- | --- |
| C1=C(c2cc[nH]n2)SCCN1c1ncnc2[nH]cnc12 | > 10 |
| NCCNC(=O)C1=CN(c2ncnc3[nH]cnc23)CCS1 | 1.3 |
| Cc1c[nH]c2ncnc(N3C=C(c4ccnn4C)SCC3)c12 | > 10 |
| CCCc1cc2c(N3C=C(c4ccnc5[nH]ccc45)SCC3)ncnc2s1 | 1.1 |
| Cc1c[nH]c2nccc(N3C=C(C(=O)N4CCC[C@H](N)C4)SCC3)c12 | 0.28 |
| C1=C(c2ccnc3[nH]ccc23)SCCN1c1cc(-c2ccsc2)ncn1 | 2.2 |
| NC1(CNC(=O)C2=CN(c3ncnc4[nH]ccc34)CCS2)CCC1 | 0.18 |
| NCCCNC(=O)C1=CN(c2ncnc3[nH]ccc23)CCS1 | 0.36 |
| C1=C(c2ccnc3[nH]ccc23)SCCN1c1cc(OCc2ccccc2)ncn1 | 0.33 |
| Cc1ncc(C2=CN(c3ncnc4[nH]cc(C)c34)CCS2)o1 | > 10 |
| N[C@@H]1CCCCN(C(=O)C2=CN(c3ncnc4[nH]ccc34)CCS2)C1 | 0.13 |
| C1=C(c2ccnc3[nH]ccc23)SCCN1c1cc(N2CCOCC2)ncn1 | 0.6 |
| Cc1c[nH]c2nccc(N3C=C(C(=O)N4CCC[C@](C)(N)C4)SCC3)c12 | 0.5 |
| NCCNC(=O)C1=CN(c2ccnc3[nH]ccc23)CCS1 | 0.16 |
| N[C@H]1CCCC[C@H]1NC(=O)C1=CN(c2ncnc3[nH]ccc23)CCS1 | 2.6 |
| CN[C@@H]1CCCN(C(=O)C2=CN(c3ccnc4[nH]cc(C)c34)CCS2)C1 | 0.73 |
| C[C@]1(N)CCCN(C(=O)C2=CN(c3ccnc4[nH]ccc34)CCS2)C1 | 0.42 |
| CC(=O)NCCNC(=O)C1=CN(c2ncnc3[nH]cnc23)CCS1 | > 10 |
| NCCCCCCNC(=O)C1=CN(c2ncnc3[nH]ccc23)CCS1 | 2.9 |
| CC(C)(N)CNC(=O)C1=CN(c2ncnc3[nH]ccc23)CCS1 | 0.38 |
| Cn1nccc1C1=CN(c2ncnc3[nH]cnc23)CCS1 | 7.2 |

Results, then the molecule that gave them:

| IC50 [µM] | Structure (SMILES) |
| --- | --- |
| > 10 | C1=C(c2cccnc2)SCCN1c1ncnc2[nH]ccc12 |
| 0.098 | N[C@@H]1CCN(C(=O)C2=CN(c3ncnc4[nH]ccc34)CCS2)C1 |
| 5.2 | Cc1ncc(C2=CN(c3ncnc4[nH]cnc34)CCS2)o1 |
| 1.1 | O=C(C1=CN(c2ncnc3[nH]ccc23)CCS1)N1C[C@@H]2CCCN[C@@H]2C1 |
| 0.82 | FC(F)(F)COc1cc(N2C=C(c3ccnc4[nH]ccc34)SCC2)ncn1 |
| 5.2 | Cc1c[nH]c2ncnc(N3C=C(c4cc[nH]n4)SCC3)c12 |
| 2.7 | Cn1cc(C2=CN(c3ncnc4[nH]cnc34)CCS2)cn1 |
| 0.38 | O=C(N[C@@H]1CCNC1)C1=CN(c2ncnc3[nH]ccc23)CCS1 |
| 2 | C[C@H]1[C@H](N)CCCN1C(=O)C1=CN(c2ncnc3[nH]ccc23)CCS1 |
| 0.68 | O=C(NC[C@H]1CCCCN1)C1=CN(c2ncnc3[nH]ccc23)CCS1 |
| 0.53 | C[C@H](CN)NC(=O)C1=CN(c2ncnc3[nH]ccc23)CCS1 |
| 0.11 | C[C@@H](CN)NC(=O)C1=CN(c2ncnc3[nH]ccc23)CCS1 |
| 0.2 | C[C@@H]1[C@H](N)CCCN1C(=O)C1=CN(c2ncnc3[nH]ccc23)CCS1 |
| > 10 | Cc1noc(C)c1C1=CN(c2ncnc3[nH]ccc23)CCS1 |
| 0.006 | C[C@H]1C[C@@H](N)CN(C(=O)C2=CN(c3ncnc4[nH]ccc34)CCS2)C1 |
| 2 | C1=C(c2cc[nH]n2)SCCN1c1ncnc2[nH]ccc12 |
| 0.64 | O=C(N[C@H](c1ccccc1)[C@@H]1CCCN1)C1=CN(c2ncnc3[nH]ccc23)CCS1 |
| 0.92 | NCCCCCNC(=O)C1=CN(c2ncnc3[nH]ccc23)CCS1 |
| 0.53 | CN[C@H]1CCCN(C(=O)C2=CN(c3ccnc4[nH]cc(C)c34)CCS2)C1 |

| IC50 [µM] | Structure (SMILES) |
| --- | --- |
| 0.066 | O=C(N[C@H]1CCCNC1)C1=CN(c2ncnc3[nH]ccc23)CCS1 |
| 2.4 | FC(F)(F)c1cc(N2C=C(c3ccnc4[nH]ccc34)SCC2)ncn1 |
| 1.8 | Cc1c[nH]c2ncnc(N3C=C(c4cnco4)SCC3)c12 |
| 0.26 | CN[C@@H]1CCCN(C(=O)C2=CN(c3ncnc4[nH]cnc34)CCS2)C1 |
| 0.31 | O=C(C1=CN(c2ncnc3[nH]ccc23)CCS1)N1C[C@H]2CCCN[C@H]2C1 |
| 0.037 | Fc1cncnc1N1C=C(c2ccnc3[nH]ccc23)SCC1 |
| 6.9 | Cc1noc(C)c1C1=CN(c2ncnc3[nH]cnc23)CCS1 |
| 0.38 | O=C(NC[C@H]1CCCN1)C1=CN(c2ncnc3[nH]ccc23)CCS1 |
| > 10 | Cc1ncoc1C1=CN(c2ncnc3[nH]cc(C)c23)CCS1 |
| > 10 | O=C(NCCNC(=O)c1ccccc1)C1=CN(c2ncnc3[nH]cnc23)CCS1 |
| 0.087 | CN[C@@H]1CCCN(C(=O)C2=CN(c3ncnc4[nH]ccc34)CCS2)C1 |
| 1.8 | C1=C(c2cnco2)SCCN1c1ncnc2[nH]cnc12 |
| 3 | Cc1cc(N2C=C(c3ccnc4[nH]ccc34)SCC2)nc(N(C)C)n1 |
| > 10 | Cc1c[nH]c2ncnc(N3C=C(c4cccnc4)SCC3)c12 |
| 0.5 | N[C@H]1CCN(C(=O)C2=CN(c3ncnc4[nH]ccc34)CCS2)C1 |
| 0.35 | O=C(NC[C@@H]1CCCN1)C1=CN(c2ncnc3[nH]ccc23)CCS1 |
| 0.043 | Cc1c[nH]c2nccc(N3C=C(C(=O)N4CCC[C@@](C)(N)C4)SCC3)c12 |
| 0.57 | CN[C@@H]1CCCN(C(=O)C2=CN(c3ccnc4[nH]ccc34)CCS2)C1 |
